Experimental data taken from patent US20110091375A1, “USE OF THE COMBINATION COMPRISING TEMOZOLOMIDE AND TNF-ALPHA FOR TREATING GLIOBLASTOMA” (THE UNIVERSITY OF CHICAGO, priority 2004, published 2011).
Where a SMILES comes first, the peptide text is derived from it. The star is where a group is joined. Cbz = O=C(OCc1ccccc1)*; CH2F = FC*

Legend:
Format in all cases: cell-based, human
[1] = test system: U87 cells; assay: Flow cytometric analysis of apoptosis (fractional DNA content, annexin V binding)
Experimental: Fractional DNA content: U87 cells (10^5) were plated overnight at 37° C. with 5% CO2. The cells were then treated with TNFα (10 ng/mL) and/or TMZ (100 μM). At 72 h the cells were washed in PBS and fixed in ice-cold 70% (v/v) ethanol. The cells were washed twice and incubated in RNase (1 mg/mL) for 30 m at 37° C., then incubated in propidium iodide (PI) solution (100 ug/mL) for […] at 4° C. Flow cytometric analysis was performed on a FACSort instrument (Becton Dickinson Immunocytometry Systems, San Jose, Calif.), and the data were analyzed using the CellQuest software (Becton Dickinson).
Annexin V binding (van Engeland, M. et al. (1998) Cytometry 31(1):1-9): At 72 h cells were washed in PBS and incubated in the dark for 15 m with binding buffer containing 5 μl of Annexin V-FITC and 5 μl of PI (Annexin V-FITC apoptosis detection kit II). The data was analyzed by Flowjo analysis software (Tree Star Inc., Ashland, Oreg.).
Cells were either un-transfected or co-transfected with pRC-CMV-p65 or pRC-CMV in the presence of a GFP plasmid at a ratio of 4:1. Under these conditions, cells expressing GFP also expressed the co-transfected plasmid (Tang, F. et al. (2002) Mol Cell Biol 22:8571-8579). Cells were then left untreated or treated as described in the figure legends. At 72 h cells were washed in PBS and incubated in the dark for 15 m with binding buffer containing 5 μl of Annexin V-FITC and 5 μl of Propidium iodide (PI). In transfected cells, annexin V binding was assessed in GFP positive cells. Data was analyzed by Flowjo analysis software (Tree Star Inc., Ashland, Oreg., USA) as described in U.S. Provisional Application No. 60/604,251 (Yamini, B. et al. (2004) Cancer Res 64:6381-6384).

[2] = test system: JNK; assay: JNK phosphorylation (activation), Western blot
Experimental: (§1) 20 μg of whole U87 cell (or nuclear) lysate was subjected to sodium dodecyl sulfate (SDS)-polyacrylamide gel electrophoresis (PAGE). Following electro-transfer, Immobilon-P membranes (Millipore Corp. Burlington, Mass., USA.) were probed with primary polyclonal antibody against IκBα, phospho-Ser32-IκBα, SAPK/JNK, phospho-Thr183/Tyr185-SAPK/JNK, p65, phospho-Ser536-p65 (Cell Signaling Technology Inc. Beverly, […]., USA) diluted 1:1000 overnight at 4° C. Anti-rabbit IgG HRP-linked secondary antibody (Cell Signaling Technology) was diluted 1:1000 in blocking buffer and applied for 1 h at room temperature. Immunoreactive bands were detected by SuperSignal enhanced chemiluminescence (ECL) (Pierce, Rockford, Ill., USA) and exposed to Kodak X-Omat film.

[3] = test system: U87 cells; assay: Measurement of superoxide production (hydroethidine oxidation); details: P<0.05 vs TNFα+TMZ
Experimental: U87 cells were plated at a density of 10^6 cells in flat-bottom 6-well tissue culture plates, incubated overnight and treated as indicated in the figure legend. Cells were then washed, resuspended in PBS and 1 μL of 10 mM hydroethidine (HE) per mL cell suspension (10 μM final concentration) was added and incubated for 5 m at 37° C. Cells were harvested and analyzed on a flow cytometer (FACSort; BD Biosciences) with excitation at 488 nm and emission collected using a 620-670 nm […] long-pass filter. Data was analyzed by Flowjo software.

[4] = test system: U87 cells; assay: U87 cell viability (Trypan Blue dye exclusion, MTS)
Experimental: Trypan Blue dye exclusion method was employed. 10^4 U87 cells were plated and incubated at 37° C. overnight. Subsequently, the cells were contacted with media containing TNFα (10 ng/mL) and/or TMZ (100 μM), incubated for 3 h, and washed. […] All of the studies were performed in triplicate.

[5] = test system: IκBα; assay: TNFα-induced IκBα degradation and phosphorylation (Western blot / kinase assay); details: at 15 m, TNFα with or without TMZ pretreatment
Experimental: Cells were then washed with 10 mL ice-cold PBS, scraped from the dish, and pelleted by centrifugation at 1000 rpm for 5 m at 4° C. Cell pellets were resuspended in 400 μl of ice-cold buffer A (10 mM HEPES, pH 7.9; 10 mM KCl; 0.1 mM EDTA; 1 mM DTT; 0.5 mM phenylmethysulfonylfluoride [PMSF]; 1 μg/mL leupeptin; 5 μg/mL aprotinin) and allowed to swell on ice for 15 m. Following the addition of 25 μl of 10% NP-40, the suspension was vortexed for 10 s and centrifuged at 14,500 rpm for 1 m at 4° C. Nuclei were resuspended in 50 μl of ice-cold buffer B (20 mM HEPES, pH 7.9; […]; 1 mM EDTA; 1 mM DTT; 1 mM PMSF; 25% glycerol; 1 μg/mL leupeptin; 5 μg/mL aprotinin) and incubated on ice for 15 m. The nuclear suspension was then centrifuged at 14,500 rpm for 5 m at 4° C. and the supernatant containing the nuclear proteins was transferred to a clean tube. Protein concentrations for each sample were determined by the Bradford method (Bio-Rad, Richmond, Calif., USA) and were adjusted to 2 μg/μl by the addition of buffer B.
as §1
IκK was immunoprecipitated from treated U87 cell extracts with anti-IKKβ antibody, (Santa Cruz Biotechnology, Santa Cruz, Calif., USA). […] Kinase activity was quantified using a Phosphoimager and Equal protein loading determined by immunoblotting with anti-IκKβ antibody (Upstate USA, Charlottesville, Va., USA). […]

[6] = pretreatment before TMZ and TNFα

Compound: CC(=O)N[C@@H](CS)C(=O)O [NAC, N-acetylcystein]
- effect on cell death, pretreatment alone ([1]; U87): minimal effects
- apoptosis induced by combination TMZ and TNFα, inhibitor pretreatment ([1]; annexin V binding, U87, P<0.01 vs TNFα+TMZ): significantly reversed
- reduction of delayed JNK activation induced by combination TMZ and TNFα ([2]; U87, NAC pretreatment): 1.7 fold
- transient JNK activation, NAC pretreatment ([2]; U87, TMZ and TNFα): without affecting
- increase in O2^.− induced by TMZ and TNFα, NAC pretreatment [3]: significantly inhibited

Compound: COC(=O)C[C@H](NC(=O)[C@H](C)NC(=O)[C@@H](NC(=O)OCc1ccccc1)C(C)C)C(=O)CF [zVAD] (Cbz-Val-Ala-Asp(OMe)-CH2F)
- cytotoxicity induced by combined treatment with TMZ and TNFα, inhibitor pretreatment [4, 6]: completely reversed
- JNK activation induced by TMZ and TNFα, inhibitor pretreatment [2, 6]: did not inhibit

Compound: TNFα
- effect on U87 cell viability ([4]; 10 ng/mL TNFα and/or 100 μM TMZ): Minimal effects
- U87 cell apoptosis (sub-G1 hypodiploid/apoptotic peak) ([1]; fractional DNA content, 72 h, TNFα 10 ng/mL and/or TMZ 100 μM): minimal effect
- degradation of IκBα [5]: complete degradation
- JNK phosphorylation (activation) ([2]; glioma cells): transiently increased
